According to publication PMC8390754, “Engineering and functional characterization of a proton-driven β-lactam antibiotic translocation module for bionanotechnological applications” (Scientific Reports, 2021):

Experiments:
[1] = target: T1, YePEPT (Yersinia enterocolitica, UniProt A0A2R9TD79); assay: [3H]Ala-Ala uptake competition in E. coli at […]; format: cell-based; conditions: read-out: % inhibition at 5 mM
T1 construct: gene YEP4_02370; wild-type
T1 sequence (A0A2R9TD79 1-511): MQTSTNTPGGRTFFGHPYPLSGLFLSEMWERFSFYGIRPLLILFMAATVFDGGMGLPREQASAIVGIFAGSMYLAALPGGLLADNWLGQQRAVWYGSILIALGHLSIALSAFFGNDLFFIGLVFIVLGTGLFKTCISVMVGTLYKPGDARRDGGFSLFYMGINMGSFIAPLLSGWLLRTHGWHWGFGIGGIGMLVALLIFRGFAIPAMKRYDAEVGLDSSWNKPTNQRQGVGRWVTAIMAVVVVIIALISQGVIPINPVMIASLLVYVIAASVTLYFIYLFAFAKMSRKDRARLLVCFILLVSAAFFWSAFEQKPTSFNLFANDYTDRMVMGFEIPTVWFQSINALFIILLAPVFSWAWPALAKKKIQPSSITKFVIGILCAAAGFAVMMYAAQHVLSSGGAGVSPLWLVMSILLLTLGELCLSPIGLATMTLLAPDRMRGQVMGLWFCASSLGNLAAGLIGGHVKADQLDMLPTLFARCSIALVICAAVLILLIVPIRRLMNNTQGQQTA

[2] = target: T2, YePEPT (Yersinia enterocolitica, UniProt A0A2R9TD79, F311Y/K314A); assay: SSM electrophysiology with proteoliposomes of purified transporter ([…]); also uptake inhibition in cells; format: biochemical
T2 construct: gene YEP4_02370

[3] = target: T3, YePEPT (Yersinia enterocolitica, UniProt A0A2R9TD79, K314A); assay: [3H]Ala-Ala uptake competition in E. coli at […]; format: cell-based
T3 construct: gene YEP4_02370

[4] = target: T2, YePEPT; assay: [3H]Ala-Ala uptake competition in E. coli overexpressing the transporter; transport confirmed by SSM electrophysiology in proteoliposomes; format: cell-based
[5] = tested on: C[C@H](N)C(=O)N[C@@H](C)C(=O)O; assay: radioligand uptake kinetics in E. coli; SSM electrophysiology in proteoliposomes; format: cell-based, Yersinia enterocolitica

## CC1(C)S[C@@H]2[C@H](NC(=O)[C@H](N)c3ccccc3)C(=O)N2[C@H]1C(=O)O [compound 1, ampicillin]
[1]
  inhibition at 5000 µM: ~50%
[2]
  % transported charge relative to Ala-Ala: 9 % transported charge relative to Ala-Ala

## CC1(C)S[C@@H]2[C@H](NC(=O)[C@H](N)c3ccc(O)cc3)C(=O)N2[C@H]1C(=O)O [compound 2, amoxicillin]
[3]
  [3H]Ala-Ala uptake competition in E. coli at 5 mM: YePEPT^K314A (Fig. 2c) showed a strong increase in affinity for amoxicillin and cefadroxil
[1]
  inhibition at 5000 µM: ~50%
[4]
  IC50: 106 µM

## CC1=C(C(=O)O)N2C(=O)[C@@H](NC(=O)[C@H](N)c3ccc(O)cc3)[C@H]2SC1 [compound 6, cefadroxil]
[3]
  [3H]Ala-Ala uptake competition in E. coli at 5 mM: YePEPT^K314A (Fig. 2c) showed a strong increase in affinity for amoxicillin and cefadroxil
[4]
  IC50: 229 µM

## CC=CC1=C(C(=O)O)N2C(=O)[C@@H](NC(=O)[C@H](N)c3ccc(O)cc3)[C@H]2SC1 [compound 7, cefprozil]
[4]
  IC50: 32 µM

## YePEPT (Yersinia enterocolitica subsp. palearctica YE-P4; F311Y/K314A)
[5]
  Km: 199 µM
